Assay results reported in patent publication US9487510B2, “Substituted heterocyclic acetamides as kappa opioid receptor (KOR) agonists” (Dr. Reddy's Laboratories Ltd., priority 2012, dated 2016).

What was measured:
human KOR receptor = human KOR receptor (Homo sapiens, UniProt P41145); assay: IP-One HTRF assay, potency of KOR agonists, dose-response in transiently transfected COS-7 cells; format: cell-based
Chain of human KOR receptor (P41145 whole entry): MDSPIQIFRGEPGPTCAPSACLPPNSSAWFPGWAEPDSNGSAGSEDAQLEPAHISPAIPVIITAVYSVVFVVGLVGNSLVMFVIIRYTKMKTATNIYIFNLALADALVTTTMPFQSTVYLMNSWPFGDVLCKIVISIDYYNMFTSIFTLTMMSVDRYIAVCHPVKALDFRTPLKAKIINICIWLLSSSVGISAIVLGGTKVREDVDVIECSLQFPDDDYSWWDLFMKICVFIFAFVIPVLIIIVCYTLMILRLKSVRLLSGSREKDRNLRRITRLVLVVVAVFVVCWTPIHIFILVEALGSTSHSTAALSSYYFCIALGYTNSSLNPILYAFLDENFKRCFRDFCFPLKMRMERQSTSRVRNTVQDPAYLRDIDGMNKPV

Compound | EC50 (human KOR receptor) | melting point
Cl.O=C(O)COc1cccc(C(CN2CCCC2)NC(=O)Cc2ccc3c(c2)NC(=O)C3)c1 (stereo not shown) [Example 92, 2-(3-(1-(2-(2-oxoindolin-6-yl)acetamido)-2-(pyrrolidin-1-yl)ethyl)phenoxy)acetic acid] | ≤ 50 nM | 104 to 106 °C
CN(C(=O)Cc1ccc2oc(=O)[nH]c2c1)[C@H](CN1CCCC1)c1cccc(-c2nn[nH]n2)c1 [Example 93, (S)-N-(1-(3-(2H-tetrazol-5-yl)phenyl)-2-(pyrrolidin-1-yl)ethyl)-N-methyl-2-(2-oxo-2,3-dihydrobenzo[d]oxazol-5-yl)acetamide] | ≤ 50 nM | 240 to 242 °C
CN(C(=O)Cc1ccc2oc(=O)n(CC(=O)O)c2c1)[C@H](CN1CC[C@@H](O)C1)C1CCCCC1 [Example 97] | ≤ 50 nM | 233 to 234 °C
O=C(Cc1ccc2oc(=O)n(Cc3ccc(-c4nnn[nH]4)cc3)c2c1)N[C@H](CN1CC[C@H](O)C1)c1ccccc1 [Example 106, 2-(3-(4-(1H-tetrazol-5-yl)benzyl)-2-oxo-2,3-dihydrobenzo[d]oxazol-5-yl)-N-((S)-2-((S)-3-hydroxypyrrolidin-1-yl)-1-phenylethyl)acetamide] | ≤ 50 nM | 296 to 297 °C
CN(C(=O)Cc1ccc2oc(=O)[nH]c2c1)[C@H](CN1CC[C@H](F)C1)c1cccc(-c2nn[nH]n2)c1 [Example 109, N-((S)-1-(3-(2H-tetrazol-5-yl)phenyl)-2-((S)-3-fluoropyrrolidin-1-yl)ethyl)-N-methyl-2-(2-oxo-2,3-dihydrobenzo[d]oxazol-5-yl)acetamide] | ≤ 50 nM | 133 to 134 °C
CN(C(=O)Cc1ccc2c(c1)NC(=O)C2)[C@H](CN1CC[C@H](O)C1)c1cccc(-c2nn[nH]n2)c1 [Example 110, N-((S)-1-(3-(2H-tetrazol-5-yl)phenyl)-2-((S)-3-hydroxypyrrolidin-1-yl)ethyl)-N-methyl-2-(2-oxoindolin-6-yl)acetamide] | ≤ 50 nM | 208 to 210 °C
CN(C(=O)Cc1ccc2c(c1)NC(=O)C2)[C@H](CN1CC[C@H](F)C1)c1cccc(-c2nn[nH]n2)c1 [Example 113, N-((S)-1-(3-(2H-tetrazol-5-yl)phenyl)-2-((S)-3-fluoropyrrolidin-1-yl)ethyl)-N-methyl-2-(2-oxoindolin-6-yl)acetamide] | ≤ 50 nM | 175 to 177 °C
CN(C(=O)Cc1ccc2c(c1)NS(=O)(=O)C2)[C@H](CN1CC[C@H](O)C1)c1ccccc1 [Example 136, 2-(2,2-dioxido-1,3-dihydrobenzo[c]isothiazol-6-yl)-N-((S)-2-((S)-3-hydroxypyrrolidin-1-yl)-1-phenylethyl)-N-methylacetamide] | ≤ 50 nM | 232 to 234 °C
